Results as given in ChEMBL document CHEMBL1201862, “PubChem BioAssay data set” (2004).
The source made the active and inactive calls.

Legend:
[1] = Luminescence Cell-Based Dose Retest to Confirm Inhibitors of Cancer Stem Cells. [Related pubchem assays (depositor defined):AID2717, AID2721]; format: functional; settings: Homo sapiens
[2] = viability loss of HMLE_sh_eGFP cells – cell-based, luminescence, counter-screen for HMLE_sh_ECad selective toxicity project, dose response (AID 463074); format: functional, Homo sapiens;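 note: HMLE human mammary epithelial cells expressing control shRNA against eGFP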
[3] = molecular target: Photoreceptor-specific nuclear receptor (Homo sapiens, UniProt Q9Y5X4); format: functional, cell-based;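 note: CHO-S cells with Gal4-NCOR and VP16-NR2E3 two-hybrid luciferase reporter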
[4] = molecular target: T1, Fatty acid synthase (Homo sapiens, UniProt P49327); assay: inhibition of human FAS-TE enzyme activity – biochemical, endpoint fluorescence intensity, uHTS hits, dose response (AID 624327); format: functional;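 note: fluorescence from hydrolysis of an O-methyl fluorescein acyl ester substrate by the enzyme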
[5] = molecular target: T1, Fatty acid synthase; assay: inhibition of human FAS-TE enzyme activity – biochemical, kinetic fluorescence intensity, dose response (AID 624326); format: functional;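 note: rate of fluorescence rise from hydrolysis of a fluorogenic O-methyl fluorescein ester substrate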
[6] = molecular target: Eukaryotic translation initiation factor 4E (Mus musculus, UniProt P63073); assay: blockers of eIF4G binding by eIF4E – biochemical, TR-FRET, dose response (AID 855); format: functional;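 note: potency for disrupting eIF4E binding to eIF4GI seen as loss of FRET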
[7] = molecular target: T2, Corticotropin-releasing factor receptor 2/Corticotropin-releasing factor-binding protein (Homo sapiens, UniProt P24387+Q13324); assay: Dose Response confirmation of uHTS hits for small molecule antagonists of the CRF-binding protein and CRF-R2 receptor complex.; format: functional; settings: read-out: IC50_Mean
T2 sequence (Q13324 whole entry): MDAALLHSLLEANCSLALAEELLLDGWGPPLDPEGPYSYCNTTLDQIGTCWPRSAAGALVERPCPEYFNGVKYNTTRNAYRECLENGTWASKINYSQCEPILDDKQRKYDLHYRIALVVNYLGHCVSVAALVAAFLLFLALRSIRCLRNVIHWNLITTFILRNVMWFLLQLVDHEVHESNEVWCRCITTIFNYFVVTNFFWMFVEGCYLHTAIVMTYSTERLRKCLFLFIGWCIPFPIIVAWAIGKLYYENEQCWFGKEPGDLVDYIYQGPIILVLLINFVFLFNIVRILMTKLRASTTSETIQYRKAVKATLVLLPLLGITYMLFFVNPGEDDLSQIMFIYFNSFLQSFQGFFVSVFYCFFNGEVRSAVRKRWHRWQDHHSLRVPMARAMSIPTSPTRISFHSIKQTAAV
T2 sequence (P24387 whole entry): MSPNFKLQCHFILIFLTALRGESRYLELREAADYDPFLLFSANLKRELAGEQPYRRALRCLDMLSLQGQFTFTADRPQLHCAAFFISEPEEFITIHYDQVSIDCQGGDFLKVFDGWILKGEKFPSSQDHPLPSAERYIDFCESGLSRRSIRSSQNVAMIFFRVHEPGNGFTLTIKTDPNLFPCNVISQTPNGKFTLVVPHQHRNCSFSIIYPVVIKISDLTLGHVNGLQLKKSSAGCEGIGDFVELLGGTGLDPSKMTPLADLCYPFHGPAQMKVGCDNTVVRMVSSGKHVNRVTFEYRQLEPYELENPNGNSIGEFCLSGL

[8] = molecular target: T2, Corticotropin-releasing factor receptor 2/Corticotropin-releasing factor-binding protein; assay: activators of CRF receptor 2 with binding protein – uHTS hits, confirmation (AID 602473); format: functional; settings: read-out: EC50_Mean
[9] = blockers of CRF-binding protein–CRF-R2 complex – cell-based, uHTS hits, 384-well, dose response (AID 651639); format: functional, Homo sapiens; settings: read-out: IC50_Mean
[10] = NIH-3T3 fibroblast cytotoxicity, dose response, cytotoxicity control, cell-based, fluorescence, Alamar Blue, secondary assay (AID 2327); format: functional;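 note: NIH-3T3 mouse fibroblasts cultured with fluconazole at 8 µg/mL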
[11] = fluconazole-exposed Candida albicans growth modulators – fluorescence, retest, confirmation (AID 2467); format: functional, cell-based
[12] = intracellular Trypanosoma cruzi inhibitors in host cells – cell-based, plate reader, cherry-pick samples, set 3, dose response (AID 651818); format: functional;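 note: compounds incubated with infected cells for about four days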
[13] = molecular target: T3, DNA repair and recombination protein RAD54-like (Homo sapiens, UniProt Q92698); assay: RAD54 Holliday junction migration blockers – biochemical, fluorescence, cherry-picked samples, dose series, confirmation (AID 651657); format: functional
T3 sequence (Q92698 whole entry): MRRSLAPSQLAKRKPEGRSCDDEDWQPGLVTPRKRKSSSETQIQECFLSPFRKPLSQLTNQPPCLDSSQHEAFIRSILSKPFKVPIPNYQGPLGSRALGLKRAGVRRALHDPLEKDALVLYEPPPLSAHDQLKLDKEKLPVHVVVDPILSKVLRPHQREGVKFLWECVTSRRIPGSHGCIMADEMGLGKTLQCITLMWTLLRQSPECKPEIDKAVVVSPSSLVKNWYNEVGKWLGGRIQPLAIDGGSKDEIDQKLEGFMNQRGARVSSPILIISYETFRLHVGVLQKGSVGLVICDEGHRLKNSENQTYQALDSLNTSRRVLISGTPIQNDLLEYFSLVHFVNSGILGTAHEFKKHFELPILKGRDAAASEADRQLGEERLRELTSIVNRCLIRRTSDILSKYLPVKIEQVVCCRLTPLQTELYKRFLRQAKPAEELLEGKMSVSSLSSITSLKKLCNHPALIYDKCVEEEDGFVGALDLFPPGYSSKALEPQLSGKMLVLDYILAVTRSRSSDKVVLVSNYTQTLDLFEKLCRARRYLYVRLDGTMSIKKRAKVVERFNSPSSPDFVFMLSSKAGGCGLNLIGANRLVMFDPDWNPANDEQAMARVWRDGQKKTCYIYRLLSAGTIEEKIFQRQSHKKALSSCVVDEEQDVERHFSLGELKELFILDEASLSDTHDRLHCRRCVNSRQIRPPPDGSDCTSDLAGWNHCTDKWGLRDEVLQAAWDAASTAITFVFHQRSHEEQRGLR

[14] = molecular target: T4, Histone-lysine N-methyltransferase NSD2 (Homo sapiens, UniProt O96028); format: biochemical
T4 sequence (O96028 whole entry): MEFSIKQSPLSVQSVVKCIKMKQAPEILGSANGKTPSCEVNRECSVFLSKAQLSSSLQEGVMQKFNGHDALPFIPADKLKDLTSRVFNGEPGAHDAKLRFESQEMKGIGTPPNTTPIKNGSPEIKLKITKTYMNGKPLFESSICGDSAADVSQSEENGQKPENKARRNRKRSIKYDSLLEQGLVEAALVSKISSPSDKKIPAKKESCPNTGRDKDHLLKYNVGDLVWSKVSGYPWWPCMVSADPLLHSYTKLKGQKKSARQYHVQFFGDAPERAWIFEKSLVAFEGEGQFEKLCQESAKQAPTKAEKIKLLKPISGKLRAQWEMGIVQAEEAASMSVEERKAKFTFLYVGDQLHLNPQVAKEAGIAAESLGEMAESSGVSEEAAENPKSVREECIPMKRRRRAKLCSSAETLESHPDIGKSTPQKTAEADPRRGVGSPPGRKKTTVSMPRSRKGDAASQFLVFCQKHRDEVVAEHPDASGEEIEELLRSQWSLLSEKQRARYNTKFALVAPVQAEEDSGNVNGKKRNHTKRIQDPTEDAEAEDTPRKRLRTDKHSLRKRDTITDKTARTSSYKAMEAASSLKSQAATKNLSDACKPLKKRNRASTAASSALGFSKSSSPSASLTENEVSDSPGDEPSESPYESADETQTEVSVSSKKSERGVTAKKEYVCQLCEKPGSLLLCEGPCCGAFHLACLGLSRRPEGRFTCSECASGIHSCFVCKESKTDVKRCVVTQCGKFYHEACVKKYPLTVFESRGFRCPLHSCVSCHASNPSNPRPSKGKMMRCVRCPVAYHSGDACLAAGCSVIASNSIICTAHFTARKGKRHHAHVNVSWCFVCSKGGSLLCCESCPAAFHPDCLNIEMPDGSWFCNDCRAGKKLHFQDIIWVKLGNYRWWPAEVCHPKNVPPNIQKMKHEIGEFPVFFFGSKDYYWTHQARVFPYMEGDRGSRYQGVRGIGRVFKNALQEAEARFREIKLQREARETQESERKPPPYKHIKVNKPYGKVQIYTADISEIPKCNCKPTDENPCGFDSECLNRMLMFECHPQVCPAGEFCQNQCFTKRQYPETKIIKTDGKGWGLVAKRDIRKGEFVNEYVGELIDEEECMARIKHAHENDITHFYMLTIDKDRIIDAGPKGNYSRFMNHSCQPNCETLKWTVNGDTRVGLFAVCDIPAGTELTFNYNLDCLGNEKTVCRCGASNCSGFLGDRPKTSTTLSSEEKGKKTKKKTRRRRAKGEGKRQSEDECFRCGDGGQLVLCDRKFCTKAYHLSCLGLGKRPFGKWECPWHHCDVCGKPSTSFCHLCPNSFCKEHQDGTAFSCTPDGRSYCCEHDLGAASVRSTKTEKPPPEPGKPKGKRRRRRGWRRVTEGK

[15] = molecular target: T5, Tyrosine-protein phosphatase non-receptor type 11 (Homo sapiens, UniProt Q06124); assay: PTPN11 enzyme inhibitors – biochemical, selectivity assay for STEP inhibitor project, dose response (AID 602367); format: functional; settings: read-out: IC50_Mean
T5 sequence (Q06124 whole entry): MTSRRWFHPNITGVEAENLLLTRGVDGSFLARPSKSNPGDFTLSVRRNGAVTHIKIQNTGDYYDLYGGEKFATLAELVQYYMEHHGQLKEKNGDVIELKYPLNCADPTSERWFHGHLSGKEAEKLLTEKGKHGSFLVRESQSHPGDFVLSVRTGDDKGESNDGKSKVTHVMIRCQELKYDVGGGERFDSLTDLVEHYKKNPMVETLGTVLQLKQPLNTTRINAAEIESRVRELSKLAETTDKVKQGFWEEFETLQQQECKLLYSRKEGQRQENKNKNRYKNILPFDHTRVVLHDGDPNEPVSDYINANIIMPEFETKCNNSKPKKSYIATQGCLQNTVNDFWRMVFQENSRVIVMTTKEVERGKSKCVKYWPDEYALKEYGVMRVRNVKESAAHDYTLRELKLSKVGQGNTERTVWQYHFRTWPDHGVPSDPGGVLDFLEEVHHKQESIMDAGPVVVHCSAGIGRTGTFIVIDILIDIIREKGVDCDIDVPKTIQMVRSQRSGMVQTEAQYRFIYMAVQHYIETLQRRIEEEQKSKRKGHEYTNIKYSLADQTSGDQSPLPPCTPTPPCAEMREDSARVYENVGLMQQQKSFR

[16] = molecular target: T6, Tyrosine-protein phosphatase non-receptor type 5 (Homo sapiens, UniProt P54829); assay: PTPN5 enzyme inhibition – biochemical, fluorescence intensity, uHTS hits, confirmation (AID 602372); format: functional; settings: read-out: IC50_Mean
T6 sequence (P54829 whole entry): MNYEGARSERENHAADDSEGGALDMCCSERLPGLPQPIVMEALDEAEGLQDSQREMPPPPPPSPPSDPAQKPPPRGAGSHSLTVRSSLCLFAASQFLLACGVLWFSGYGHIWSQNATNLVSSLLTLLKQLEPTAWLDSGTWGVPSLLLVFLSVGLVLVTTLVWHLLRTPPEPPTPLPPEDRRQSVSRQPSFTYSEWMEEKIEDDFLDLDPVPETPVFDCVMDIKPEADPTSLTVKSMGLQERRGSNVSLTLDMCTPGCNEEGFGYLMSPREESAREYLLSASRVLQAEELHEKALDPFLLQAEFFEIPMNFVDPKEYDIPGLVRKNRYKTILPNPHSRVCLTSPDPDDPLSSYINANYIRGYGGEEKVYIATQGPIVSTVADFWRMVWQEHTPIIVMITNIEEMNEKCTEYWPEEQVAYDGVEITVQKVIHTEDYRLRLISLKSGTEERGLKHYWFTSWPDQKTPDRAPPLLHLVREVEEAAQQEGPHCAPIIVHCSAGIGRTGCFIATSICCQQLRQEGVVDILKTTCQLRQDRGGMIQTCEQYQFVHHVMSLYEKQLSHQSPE

[17] = molecular target: Dual specificity protein phosphatase 3 (Homo sapiens, UniProt P51452); assay: VHR phosphatase inhibition, dose response, selectivity assay for STEP inhibitor project, biochemical (AID 602374); format: functional; settings: read-out: IC50_Mean
Dual specificity protein phosphatase 3, sequence (P51452 whole entry): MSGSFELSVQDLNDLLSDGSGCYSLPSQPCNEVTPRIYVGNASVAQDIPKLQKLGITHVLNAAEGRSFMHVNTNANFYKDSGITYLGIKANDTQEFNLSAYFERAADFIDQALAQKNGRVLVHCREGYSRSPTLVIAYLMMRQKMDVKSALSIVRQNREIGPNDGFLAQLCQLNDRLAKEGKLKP

T1 sequence (P49327 whole entry): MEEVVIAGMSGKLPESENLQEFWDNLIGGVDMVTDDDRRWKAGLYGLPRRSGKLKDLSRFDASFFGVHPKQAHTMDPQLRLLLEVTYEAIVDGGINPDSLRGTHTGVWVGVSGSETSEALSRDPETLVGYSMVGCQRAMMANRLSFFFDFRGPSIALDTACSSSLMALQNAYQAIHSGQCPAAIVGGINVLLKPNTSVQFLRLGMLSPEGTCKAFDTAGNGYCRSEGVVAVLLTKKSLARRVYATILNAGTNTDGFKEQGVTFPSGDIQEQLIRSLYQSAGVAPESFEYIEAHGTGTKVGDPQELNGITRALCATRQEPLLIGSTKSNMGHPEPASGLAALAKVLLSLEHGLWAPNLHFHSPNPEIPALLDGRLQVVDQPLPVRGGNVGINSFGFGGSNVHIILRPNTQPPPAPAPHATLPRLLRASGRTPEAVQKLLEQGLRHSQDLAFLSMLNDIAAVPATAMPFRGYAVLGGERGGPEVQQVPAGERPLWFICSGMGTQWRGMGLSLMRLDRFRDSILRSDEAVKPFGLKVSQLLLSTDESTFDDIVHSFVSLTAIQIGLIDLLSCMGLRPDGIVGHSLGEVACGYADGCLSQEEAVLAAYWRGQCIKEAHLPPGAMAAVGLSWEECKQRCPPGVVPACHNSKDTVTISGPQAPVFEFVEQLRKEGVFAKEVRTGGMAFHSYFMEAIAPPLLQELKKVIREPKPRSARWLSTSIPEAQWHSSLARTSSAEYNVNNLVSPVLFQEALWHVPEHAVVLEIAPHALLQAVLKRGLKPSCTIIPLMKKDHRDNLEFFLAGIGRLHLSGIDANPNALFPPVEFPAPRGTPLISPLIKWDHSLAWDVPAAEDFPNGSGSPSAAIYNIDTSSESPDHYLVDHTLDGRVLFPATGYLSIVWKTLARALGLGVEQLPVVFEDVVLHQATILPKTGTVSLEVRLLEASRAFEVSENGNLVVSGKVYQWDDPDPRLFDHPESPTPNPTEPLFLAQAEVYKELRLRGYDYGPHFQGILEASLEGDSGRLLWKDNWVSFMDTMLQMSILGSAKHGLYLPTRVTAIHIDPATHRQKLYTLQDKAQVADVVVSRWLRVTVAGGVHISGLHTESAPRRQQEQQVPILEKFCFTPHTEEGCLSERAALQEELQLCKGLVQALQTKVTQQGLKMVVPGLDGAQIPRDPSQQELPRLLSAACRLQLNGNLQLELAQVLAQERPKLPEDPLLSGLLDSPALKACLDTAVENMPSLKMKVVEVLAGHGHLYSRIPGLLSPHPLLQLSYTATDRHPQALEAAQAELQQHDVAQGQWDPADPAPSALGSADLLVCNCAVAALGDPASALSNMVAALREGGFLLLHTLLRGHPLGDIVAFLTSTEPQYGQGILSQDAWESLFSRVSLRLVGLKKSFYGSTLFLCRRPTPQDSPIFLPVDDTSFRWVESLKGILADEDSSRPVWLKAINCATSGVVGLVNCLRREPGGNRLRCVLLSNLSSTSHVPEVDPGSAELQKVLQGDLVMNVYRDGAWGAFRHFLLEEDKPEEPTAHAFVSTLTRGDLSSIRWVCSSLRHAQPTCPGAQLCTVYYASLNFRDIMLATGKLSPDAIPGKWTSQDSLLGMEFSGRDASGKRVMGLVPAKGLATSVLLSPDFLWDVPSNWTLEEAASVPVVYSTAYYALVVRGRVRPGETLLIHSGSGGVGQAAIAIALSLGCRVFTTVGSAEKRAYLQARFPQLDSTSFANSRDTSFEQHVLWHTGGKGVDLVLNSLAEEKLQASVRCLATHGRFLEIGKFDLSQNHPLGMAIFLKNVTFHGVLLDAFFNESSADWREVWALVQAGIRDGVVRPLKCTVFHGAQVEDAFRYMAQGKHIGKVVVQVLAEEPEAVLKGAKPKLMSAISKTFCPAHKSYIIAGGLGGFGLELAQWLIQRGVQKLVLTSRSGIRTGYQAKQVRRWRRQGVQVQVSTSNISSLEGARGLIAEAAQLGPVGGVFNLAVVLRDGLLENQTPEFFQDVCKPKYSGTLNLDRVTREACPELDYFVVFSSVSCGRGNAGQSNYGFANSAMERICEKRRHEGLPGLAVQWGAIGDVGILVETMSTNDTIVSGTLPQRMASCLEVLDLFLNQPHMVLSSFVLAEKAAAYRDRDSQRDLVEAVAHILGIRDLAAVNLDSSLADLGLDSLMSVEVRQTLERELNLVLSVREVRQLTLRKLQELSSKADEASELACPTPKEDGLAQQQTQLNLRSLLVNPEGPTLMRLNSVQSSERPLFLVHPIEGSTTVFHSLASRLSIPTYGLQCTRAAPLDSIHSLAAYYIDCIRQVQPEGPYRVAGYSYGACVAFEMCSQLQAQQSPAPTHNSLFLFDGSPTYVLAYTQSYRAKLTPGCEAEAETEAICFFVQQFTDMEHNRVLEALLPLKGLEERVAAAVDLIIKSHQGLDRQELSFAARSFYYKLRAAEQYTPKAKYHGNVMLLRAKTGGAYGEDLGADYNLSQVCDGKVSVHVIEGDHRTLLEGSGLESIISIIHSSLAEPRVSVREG
Eukaryotic translation initiation factor 4E, sequence (P63073 whole entry): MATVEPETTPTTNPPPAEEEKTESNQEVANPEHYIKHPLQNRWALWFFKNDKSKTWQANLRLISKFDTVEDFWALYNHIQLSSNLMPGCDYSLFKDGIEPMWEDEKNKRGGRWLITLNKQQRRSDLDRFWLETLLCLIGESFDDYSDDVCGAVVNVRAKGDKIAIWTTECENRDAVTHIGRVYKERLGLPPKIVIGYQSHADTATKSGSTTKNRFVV
Photoreceptor-specific nuclear receptor, sequence (Q9Y5X4 whole entry, the tested form may be a part): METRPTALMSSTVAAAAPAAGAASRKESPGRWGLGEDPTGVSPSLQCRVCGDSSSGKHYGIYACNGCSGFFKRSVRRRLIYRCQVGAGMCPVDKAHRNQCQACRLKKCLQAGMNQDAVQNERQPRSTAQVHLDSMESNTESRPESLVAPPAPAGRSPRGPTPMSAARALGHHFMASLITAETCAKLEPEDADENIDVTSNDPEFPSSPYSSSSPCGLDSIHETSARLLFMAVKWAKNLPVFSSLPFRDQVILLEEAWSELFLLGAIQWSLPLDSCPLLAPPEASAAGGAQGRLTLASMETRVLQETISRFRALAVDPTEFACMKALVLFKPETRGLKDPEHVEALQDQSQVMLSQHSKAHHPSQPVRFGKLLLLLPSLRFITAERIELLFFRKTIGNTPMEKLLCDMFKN

For `O=C(COC(=O)c1cc([N+](=O)[O-])ccc1N1CCOCC1)Nc1ccc(Cl)cn1`, the AC50 [1] was 4.89 µM (active), the AC50 [2] was 25.6 µM (active) and the IC50 [3] was 1.91 µM (active). The IC50 [4] was 5.2 µM (active) and the IC50 [5] was 6.06 µM (active).
With `COCC(C)n1c(SCc2ccc(C(=O)OC)o2)nc2ccccc2c1=O` (stereo unspecified) the IC50 [6] was > 64 µM (inactive), the IC50 [7] was 27.4 µM (active) and the EC50 [8] was > 53 µM (inactive). For the same molecule, the IC50 [9] was > 20 µM (inactive).
With `O=C1/C(=C\c2ccc(Br)cc2)SC(=S)N1NS(=O)(=O)c1ccccc1` the EC50 [10] was 94.2 µM (active), the EC50 [11] was 0.267 µM (active) and the IC50 [7] was 5.5 µM (active). For the same molecule, the EC50 [8] was 36.2 µM (active) and the IC50 [9] was 17.6 µM (active).
In the case of `C[C@@H]1CN([C@H](C)CO)C(=O)c2cc(N(C)C)ccc2O[C@@H]1CN(C)Cc1ccc(C(=O)Nc2ccccc2N)cc1`, the AC50 [12] is reported as 3.19 µM (active).
For `O=C(O)c1ccc(-n2ncc3c2/C(=C/c2cccc([N+](=O)[O-])c2)CC3)cc1`, the IC50 [7] was 4.34 µM (active), the EC50 [8] was > 53 µM (inactive) and the IC50 [9] was 9.76 µM (active).
For `C[C@@H]1CN([C@@H](C)CO)C(=O)Cc2cc(NC(=O)Nc3ccc(C(F)(F)F)cc3)ccc2O[C@@H]1CN(C)Cc1ccc(C(=O)Nc2ccccc2N)cc1`, the AC50 [12] was 1.8 µM (active).
In the case of `C[C@@H]1CN([C@H](C)CO)C(=O)c2cccc(NS(=O)(=O)c3ccc(F)cc3)c2O[C@@H]1CN(C)C(=O)Nc1ccc(C(F)(F)F)cc1`, the AC50 [12] is reported as 4.16 µM (active).
In the case of `CCCN(CCC)CCCNC(=O)c1cc2c(O)nc3ccccc3c2s1`, the AC50 [13] is reported as 71.6 µM (active).
For `CC(C)NC1CCC(Nc2ccnc3cc(Cl)ccc23)CC1` (stereo unspecified), the AC50 [13] was 25.7 µM (active) and the AC50 [14] was > 20 µM (inactive).
For `COc1ccc(NC(=S)NCCCN2CCCC2)cc1Cl`, the IC50 [15] was 1.89 µM (active), the IC50 [16] was 16.4 µM (active) and the IC50 [17] was 1.12 µM (active).
